Measured values taken from PubChem BioAssay (NCI).
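1) Cells in 96-well plates. 2) Compound, 48 h, 5 concentrations. 3) Linear interpolation between surrounding doses. 4) Unreached endpoint = highest concentration. TGI denotes the concentration required for complete inhibition of growth.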

Assays:
Assay in all cases: NCI-60 cell line screen, 48 h
786-0 renal = test system: 786-0 renal
A549 NSCLC = test system: A549 NSCLC
ACHN renal = test system: ACHN renal
CAKI-1 renal = test system: CAKI-1 renal
COLO 205 colon = test system: COLO 205 colon
DLD-1 colon = test system: DLD-1 colon
DMS 114 small cell lung = test system: DMS 114 small cell lung
DMS 273 small cell lung = test system: DMS 273 small cell lung
EKVX NSCLC = test system: EKVX NSCLC
HCC-2998 colon = test system: HCC-2998 colon
HCT-116 colon = test system: HCT-116 colon
HL-60(TB) leukemia = test system: HL-60(TB) leukemia
HOP-18 NSCLC = test system: HOP-18 NSCLC
HOP-62 NSCLC = test system: HOP-62 NSCLC
HT29 colon = test system: HT29 colon
KM12 colon = test system: KM12 colon
KM20L2 colon = test system: KM20L2 colon
LOX IMVI melanoma = test system: LOX IMVI melanoma
LXFL 529 NSCLC = test system: LXFL 529 NSCLC
M14 melanoma = test system: M14 melanoma
M19-MEL melanoma = test system: M19-MEL melanoma
MALME-3M melanoma = test system: MALME-3M melanoma
NCI-H226 lung = test system: NCI-H226 lung
NCI-H23 lung = test system: NCI-H23 lung
NCI-H460 lung = test system: NCI-H460 lung
NCI-H522 lung = test system: NCI-H522 lung
OVCAR-4 ovarian = test system: OVCAR-4 ovarian
OVCAR-5 ovarian = test system: OVCAR-5 ovarian
OVCAR-8 ovarian = test system: OVCAR-8 ovarian
RXF 393 renal = test system: RXF 393 renal
SF-268 CNS = test system: SF-268 CNS
SF-295 CNS = test system: SF-295 CNS
SF-539 CNS = test system: SF-539 CNS
SK-MEL-2 melanoma = test system: SK-MEL-2 melanoma
SK-MEL-28 melanoma = test system: SK-MEL-28 melanoma
SN12C renal = test system: SN12C renal
SNB-19 CNS = test system: SNB-19 CNS
SNB-78 CNS = test system: SNB-78 CNS
SW-620 colon = test system: SW-620 colon
TK-10 renal = test system: TK-10 renal
U251 CNS = test system: U251 CNS
UACC-257 melanoma = test system: UACC-257 melanoma
UO-31 renal = test system: UO-31 renal
A498 renal = test system: A498 renal
CCRF-CEM leukemia = test system: CCRF-CEM leukemia
HCT-15 colon = test system: HCT-15 colon
HOP-92 NSCLC = test system: HOP-92 NSCLC
IGROV1 ovarian = test system: IGROV1 ovarian
K-562 leukemia = test system: K-562 leukemia
MOLT-4 leukemia = test system: MOLT-4 leukemia
OVCAR-3 ovarian = test system: OVCAR-3 ovarian
RPMI-8226 leukemia = test system: RPMI-8226 leukemia
SK-MEL-5 melanoma = test system: SK-MEL-5 melanoma
SK-OV-3 ovarian = test system: SK-OV-3 ovarian
SNB-75 CNS = test system: SNB-75 CNS
SR leukemia = test system: SR leukemia
UACC-62 melanoma = test system: UACC-62 melanoma

CC/C=C/c1cc2c(c3[nH]ccc13)[C@@H](C)CC2C (stereo partly specified) (tested in a mixture with another compound) was tested, and the TGI (786-0 renal) was 33.1 µM, the TGI (A549 NSCLC) was 39.1 µM and the TGI (ACHN renal) was 31.7 µM. For the same compound, the TGI (CAKI-1 renal) was 31.7 µM, the TGI (COLO 205 colon) was 39.7 µM and the TGI (DLD-1 colon) was 26.3 µM. For the same compound, the TGI (DMS 114 small cell lung) was 35.6 µM, the TGI (DMS 273 small cell lung) was 29.4 µM and the TGI (EKVX NSCLC) was 36 µM. It also gave a TGI (HCC-2998 colon) of 10 µM, a TGI (HCT-116 colon) of 33.8 µM and a TGI (HL-60(TB) leukemia) of 44.5 µM. For the same compound, the TGI (HOP-18 NSCLC) was 26.5 µM, the TGI (HOP-62 NSCLC) was 32.8 µM and the TGI (HT29 colon) was 28.4 µM. For the same compound, the TGI (KM12 colon) was 32.2 µM, the TGI (KM20L2 colon) was 29.3 µM and the TGI (LOX IMVI melanoma) was 29.4 µM. The TGI (LXFL 529 NSCLC) was 30 µM, the TGI (M14 melanoma) was 29.3 µM and the TGI (M19-MEL melanoma) was 35.3 µM. For the same compound, the TGI (MALME-3M melanoma) was 36 µM, the TGI (NCI-H226 lung) was 28.8 µM and the TGI (NCI-H23 lung) was 33.1 µM. It also gave a TGI (NCI-H460 lung) of 29.5 µM, a TGI (NCI-H522 lung) of 30.9 µM and a TGI (OVCAR-4 ovarian) of 28.9 µM. It also gave a TGI (OVCAR-5 ovarian) of 34.1 µM, a TGI (OVCAR-8 ovarian) of 31.4 µM and a TGI (RXF 393 renal) of 25.7 µM. The TGI (SF-268 CNS) was 32 µM, the TGI (SF-295 CNS) was 30.2 µM and the TGI (SF-539 CNS) was 33.6 µM. For the same compound, the TGI (SK-MEL-2 melanoma) was 29.6 µM, the TGI (SK-MEL-28 melanoma) was 30.2 µM and the TGI (SN12C renal) was 28.8 µM. For the same compound, the TGI (SNB-19 CNS) was 33.8 µM, the TGI (SNB-78 CNS) was 32.3 µM and the TGI (SW-620 colon) was 32.3 µM. It also gave a TGI (TK-10 renal) of 36.9 µM, a TGI (U251 CNS) of 31.9 µM and a TGI (UACC-257 melanoma) of 29.8 µM. It also gave a TGI (UO-31 renal) of 31 µM.

With COc1ccc(NC(=O)CC(=O)NN2C(=O)/C(=C/c3ccc(N(CCC#N)CCC#N)cc3C)N=C2/C=C\c2ccccc2)cc1 the TGI (786-0 renal) was over 100 µM, the TGI (A498 renal) was over 100 µM and the TGI (A549 NSCLC) was over 100 µM. It also gave a TGI (ACHN renal) of over 100 µM, a TGI (CAKI-1 renal) of over 100 µM and a TGI (CCRF-CEM leukemia) of over 100 µM. The TGI (COLO 205 colon) was over 100 µM, the TGI (DLD-1 colon) was over 100 µM and the TGI (HCT-116 colon) was over 100 µM. It also gave a TGI (HCT-15 colon) of over 100 µM, a TGI (HL-60(TB) leukemia) of over 100 µM and a TGI (HOP-18 NSCLC) of over 100 µM. For the same compound, the TGI (HOP-62 NSCLC) was over 100 µM, the TGI (HOP-92 NSCLC) was over 100 µM and the TGI (HT29 colon) was over 100 µM. For the same compound, the TGI (IGROV1 ovarian) was over 100 µM, the TGI (K-562 leukemia) was over 100 µM and the TGI (KM12 colon) was over 100 µM. It also gave a TGI (KM20L2 colon) of over 100 µM, a TGI (LOX IMVI melanoma) of over 100 µM and a TGI (LXFL 529 NSCLC) of over 100 µM. The TGI (M14 melanoma) was over 100 µM, the TGI (M19-MEL melanoma) was over 100 µM and the TGI (MALME-3M melanoma) was over 100 µM. The TGI (MOLT-4 leukemia) was over 100 µM, the TGI (NCI-H226 lung) was over 100 µM and the TGI (NCI-H23 lung) was over 100 µM. It also gave a TGI (NCI-H460 lung) of over 100 µM, a TGI (NCI-H522 lung) of over 100 µM and a TGI (OVCAR-3 ovarian) of over 100 µM. The TGI (OVCAR-4 ovarian) was over 100 µM, the TGI (OVCAR-5 ovarian) was over 100 µM and the TGI (OVCAR-8 ovarian) was over 100 µM. The TGI (RPMI-8226 leukemia) was over 100 µM, the TGI (SF-268 CNS) was over 100 µM and the TGI (SF-295 CNS) was over 100 µM. It also gave a TGI (SF-539 CNS) of over 100 µM, a TGI (SK-MEL-2 melanoma) of over 100 µM and a TGI (SK-MEL-28 melanoma) of over 100 µM. It also gave a TGI (SK-MEL-5 melanoma) of over 100 µM, a TGI (SK-OV-3 ovarian) of over 100 µM and a TGI (SN12C renal) of over 100 µM. For the same compound, the TGI (SNB-19 CNS) was over 100 µM, the TGI (SNB-75 CNS) was over 100 µM and the TGI (SNB-78 CNS) was over 100 µM. It also gave a TGI (SR leukemia) of over 100 µM, a TGI (SW-620 colon) of over 100 µM and a TGI (TK-10 renal) of over 100 µM. It also gave a TGI (U251 CNS) of over 100 µM, a TGI (UACC-257 melanoma) of over 100 µM and a TGI (UACC-62 melanoma) of over 100 µM. It also gave a TGI (UO-31 renal) of over 100 µM.

In the case of Cc1nc(Nc2ccc(Cl)cc2)sc1C(=O)NNC(=O)C(=O)NN, the TGI (786-0 renal) is reported as 32 µM, the TGI (A498 renal) is reported as 29.5 µM and the TGI (A549 NSCLC) is reported as 37.9 µM. It also gave a TGI (ACHN renal) of 49.4 µM, a TGI (CAKI-1 renal) of 49.3 µM and a TGI (CCRF-CEM leukemia) of 52.8 µM. The TGI (COLO 205 colon) was 35.8 µM, the TGI (DLD-1 colon) was 32.9 µM and the TGI (DMS 114 small cell lung) was 40.7 µM. For the same compound, the TGI (DMS 273 small cell lung) was 33.9 µM, the TGI (EKVX NSCLC) was 30.6 µM and the TGI (HCC-2998 colon) was 35.5 µM. It also gave a TGI (HCT-116 colon) of 33.9 µM, a TGI (HCT-15 colon) of 31.6 µM and a TGI (HL-60(TB) leukemia) of 41 µM. It also gave a TGI (HOP-18 NSCLC) of 37.1 µM, a TGI (HOP-62 NSCLC) of 35.9 µM and a TGI (HOP-92 NSCLC) of 36.4 µM. For the same compound, the TGI (HT29 colon) was 31.2 µM, the TGI (IGROV1 ovarian) was 33.7 µM and the TGI (K-562 leukemia) was 51.4 µM. It also gave a TGI (KM12 colon) of 36 µM, a TGI (KM20L2 colon) of 30 µM and a TGI (LOX IMVI melanoma) of 32.3 µM. For the same compound, the TGI (LXFL 529 NSCLC) was 33.6 µM, the TGI (M14 melanoma) was 34 µM and the TGI (M19-MEL melanoma) was 35.6 µM. The TGI (MALME-3M melanoma) was 38.8 µM, the TGI (MOLT-4 leukemia) was 42.5 µM and the TGI (NCI-H226 lung) was 36.6 µM. The TGI (NCI-H23 lung) was 31.8 µM, the TGI (NCI-H460 lung) was 34.7 µM and the TGI (NCI-H522 lung) was 32 µM. For the same compound, the TGI (OVCAR-3 ovarian) was 38.1 µM, the TGI (OVCAR-4 ovarian) was 34.3 µM and the TGI (OVCAR-5 ovarian) was 34.5 µM. The TGI (OVCAR-8 ovarian) was over 100 µM, the TGI (RXF 393 renal) was 43.4 µM and the TGI (SF-268 CNS) was 66.5 µM. The TGI (SF-295 CNS) was 34 µM, the TGI (SF-539 CNS) was 41 µM and the TGI (SK-MEL-2 melanoma) was 32.6 µM. It also gave a TGI (SK-MEL-28 melanoma) of 47.3 µM, a TGI (SK-MEL-5 melanoma) of 32.7 µM and a TGI (SK-OV-3 ovarian) of 40.5 µM. For the same compound, the TGI (SN12C renal) was 30.5 µM, the TGI (SNB-19 CNS) was 46.3 µM and the TGI (SNB-75 CNS) was 48.6 µM. The TGI (SNB-78 CNS) was 64 µM, the TGI (SR leukemia) was 54.8 µM and the TGI (SW-620 colon) was 32.6 µM. The TGI (TK-10 renal) was 91.7 µM, the TGI (U251 CNS) was 33.2 µM and the TGI (UACC-257 melanoma) was 52.5 µM. The TGI (UACC-62 melanoma) was 28.6 µM and the TGI (UO-31 renal) was 31.5 µM.
